pIC50: −log10 of the molar value.
biological target: T1, Recombinant human BRD4 containing dual bromodomains (BRD4-BD12 (1-477)) (Homo sapiens, UniProt O60885); assay: BRD4 Alphascreen binding assay
T1 construct: Recombinant human BRD4 containing dual bromodomains (BRD4-BD12 (1-477)); made in house; host or cells: E. coli BL21-CodonPlus (DE3), modified pET vector
Method: BRD4 Alphascreen Binding Assay
Binding of compounds of Formula (I) with BRD4 was assessed using Alphascreen binding assay. The inhibition of the interaction between BRD4 and its acetylated target protein was measured quantitatively using recombinant BRD4 protein, an acetylated Histone 4 peptide, and AlphaScreen™ technology. In absence of inhibition of the BRD4 protein bound to AlphaScreen™ nickel chelate acceptor beads can interact with the acetylated Histone 4 peptide which was immobilized by the AlphaScreen™ Streptavidin coated beads. This interaction brings donor and acceptor beads in proximity. The close proximity allows the singlet oxygen produced by laser excitation of the donor beads to reach the acceptor beads and generate a luminescence signal. BRD4 inhibitors result in a decrease in the proximity signal through an inhibition of the BRD4—acetylated peptide interaction.
Recombinant human BRD4 containing dual bromodomains (BRD4-BD12 (1-477)) was prepared and purified as described in protein expression and purification session. The peptide was human Histone H41-21K5AcK8AcK12AcK16Ac-Biotin (Anaspec CA, USA).
Protocol for BRD4 assay: All components are prepared in buffer composed of 50 mM HEPES pH 7.5, 50 mM NaCl, 0.01% BSA, 0.01% Triton X-100, 2 mM DTT. Test compounds and DMSO vehicle are diluted 1:50 in buffer and a 4 μL volume was transferred to an Alphaplate. 5.5 μL of Bromodomain protein and 5.5 μL of peptide are added to wells containing 4 μL of various concentrations of test compounds of Formula (I) or DMSO vehicle in an Alphaplate (PerkinElmer GA, USA) and incubated for 1 hour at room temperature. 5 μL donor and acceptor bead mixture was then added with final concentrations of 7.5 μg/ml. 30 minutes after bead addition, Alpha signal was read on the Envision spectrometer (λEx 680 nm, λEm 520-620 nm). Final concentrations of bromodomain proteins and peptide are as shown below.
All data were normalized to the mean of 16 high and 16 low control wells on each plate. A four parameter curve fit of the following formula was then applied: Y=A+((B−A)/(1+((C/x)^D))) Where ‘A’ is the minimum, ‘B’ is the maximum, ‘C’ is the IC50 and ‘D’ is the Hill slope. Protein Expression and Purification
Recombinant human BRD4 containing dual bromodomains (BRD4-BD12 (1-477)) was expressed in E. coli cells (in a modified pET vector) with an N-terminal six-His tag and purified using a combination of both IMAC (Ni-affinity) and size exclusion chromatography steps.
Recombinant BRD4 was expressed using the E. coli strain BL21-CodonPlus (DE3) (Agilent Technologies CA, USA). Cells were grown in Terrific Broth (TB) media to an OD600 of 2.0 at 37° C. at which temperature was reduced to 18° C., protein was induced with 0.1 mM isopropyl-β-D-thiogalactopyranoside (“IPTG”) for 12-18 hours and harvested by centrifugation at 8000×g for 20 minutes. Cells were re-suspended in 40 mM Tris-HCl pH 8.0, 0.5 M NaCl, 25 mM Imidazole, 5% glycerol, 1/200 vol. Protease Inhibitor Cocktail Set III (Calbiochem), 5 mM beta-mercaptoethanol (“BME”), 0.5 mg/mL Lysozyme, and 0.5 mg/mL DNaseI, incubated on ice for 30 minutes and lysed with a cell disruptor (MicroFluidics MA, USA). The lysate was clarified by centrifugation at 20,000×g for 2 hours. The protein was captured with Ni-NTA resin (Life Technologies, USA). Contaminating proteins were washed off with 40 mM Tris-HCl pH 8.0, 0.5 M NaCl, 25 mM Imidazole, 5% glycerol, and 5 mM BME. Following 3× wash steps, protein was eluted step wise into wash buffer containing 50, 100, 150, 500 mM Imidazole. The protein was further purified using Gel Filtration column 16/60 Superdex 200 (GE Biosciences NJ, USA) in 10 mM HEPES pH 8.0, 150 mM NaCl, and 5 mM DTT. Glycerol was added to a final concentration of 12% and the protein was aliquoted and flash-frozen in liquid Nitrogen.

Row | Structure (SMILES) | pIC50
1 | Cc1ccc(S(=O)(=O)n2cc(-c3ccc(C(=O)O)cc3)c3cc(-c4c(C)noc4C)cnc32)cc1 [P-0006, 4-(5-(3,5-dimethylisoxazol-4-yl)-1-tosyl-1H-pyrrolo[2,3-b]pyridin-3-yl)benzoic acid] | 3.00 to 5.10
2 | Cc1noc(C)c1-c1cnc2c(c1)c(-c1ccc(C(=O)O)cc1)cn2C(c1ccccn1)C1CC1 (stereo not shown) [P-0007, 4-(1-(cyclopropyl(pyridin-2-yl)methyl)-5-(3,5-dimethylisoxazol-4-yl)-1H-pyrrolo[2,3-b]pyridin-3-yl)benzoic acid] | 3.00 to 5.10
3 | Cc1noc(C)c1-c1cnc2c(c1)c(-c1ccc(C(=O)O)cc1)cn2C(c1ccccn1)C1CCC1 (stereo not shown) [P-0008, 4-(1-(cyclobutyl(pyridin-2-yl)methyl)-5-(3,5-dimethylisoxazol-4-yl)-1H-pyrrolo[2,3-b]pyridin-3-yl)benzoic acid] | 3.00 to 5.10
4 | Cc1noc(C)c1-c1cnc2c(CC3CCC3)cn(-c3ccc(C(=O)O)cn3)c2c1 [P-0009, 6-(3-(cyclobutylmethyl)-6-(3,5-dimethylisoxazol-4-yl)-1H-pyrrolo[3,2-b]pyridin-1-yl)nicotinic acid] | 3.00 to 5.10
5 | Cc1noc(C)c1-c1cnc2c(CC3CC3)cn(-c3ccc(C(=O)O)cn3)c2c1 [P-0010, 6-(3-(cyclopropylmethyl)-6-(3,5-dimethylisoxazol-4-yl)-1H-pyrrolo[3,2-b]pyridin-1-yl)nicotinic acid] | 3.00 to 5.10
6 | Cc1noc(C)c1-c1cnc2c(Cc3ccccn3)cn(-c3ccc(C(=O)O)cn3)c2c1 [P-0011, 6-(6-(3,5-dimethylisoxazol-4-yl)-3-(pyridin-2-ylmethyl)-1H-pyrrolo[3,2-b]pyridin-1-yl)nicotinic acid] | 3.00 to 5.10
7 | Cc1noc(C)c1-c1cnc2c(c1)c(-c1ccc(C(=O)O)cc1)cn2C(c1ccccn1)c1ccccn1 [P-0012, 4-(1-(di(pyridin-2-yl)methyl)-5-(3,5-dimethylisoxazol-4-yl)-1H-pyrrolo[2,3-b]pyridin-3-yl)benzoic acid] | 3.00 to 5.10
8 | Cc1noc(C)c1-c1cnc2c(c1)c(-c1ccc(C(=O)O)cc1F)cn2[C@@H](C)c1ccccn1 [P-0097, (S)-4-(5-(3,5-dimethylisoxazol-4-yl)-1-(1-(pyridin-2-yl)ethyl)-1H-pyrrolo[2,3-b]pyridin-3-yl)-3-fluorobenzoic acid] | 3.00 to 5.10
9 | COc1ccc(C(=O)O)cc1-n1cc(CC2CCC2)c2ncc(-c3c(C)noc3C)cc21 [P-0098, 3-(3-(cyclobutylmethyl)-6-(3,5-dimethylisoxazol-4-yl)-1H-pyrrolo[3,2-b]pyridin-1-yl)-4-methoxybenzoic acid] | 5.10 to 6.00
10 | Cc1noc(C)c1-c1cnc2c(C(=O)c3cccc(OC(F)F)c3)cn(-c3ccnc(C(=O)O)c3)c2c1 [P-0099, 4-(3-(3-(difluoromethoxy)benzoyl)-6-(3,5-dimethylisoxazol-4-yl)-1H-pyrrolo[3,2-b]pyridin-1-yl)picolinic acid] | 5.10 to 6.00
11 | Cc1noc(C)c1-c1cnc2c(Cc3cccc(OC(F)F)c3)cn(-c3ccnc(C(=O)O)c3)c2c1 [P-0100, 4-(3-(3-(difluoromethoxy)benzyl)-6-(3,5-dimethylisoxazol-4-yl)-1H-pyrrolo[3,2-b]pyridin-1-yl)picolinic acid] | 5.10 to 6.00
12 | Cc1noc(C)c1-c1cnc2c(c1)c(-c1cccc(C(=O)O)c1)cn2CC1CC(F)(F)C1 [P-0101, 3-(1-((3,3-difluorocyclobutyl)methyl)-5-(3,5-dimethylisoxazol-4-yl)-1H-pyrrolo[2,3-b]pyridin-3-yl)benzoic acid] | 3.00 to 5.10
13 | Cc1noc(C)c1-c1cnc2c(c1)c(-c1cccc(C(=O)O)c1)cn2CC1(C)COC1 [P-0102, 3-(5-(3,5-dimethylisoxazol-4-yl)-1-((3-methyloxetan-3-yl)methyl)-1H-pyrrolo[2,3-b]pyridin-3-yl)benzoic acid] | 3.00 to 5.10
14 | COc1cc(C(=O)O)cc(OC)c1-c1cn([C@@H](C)c2ccccn2)c2ncc(-c3c(C)noc3C)cc12 [P-0103, (S)-4-(5-(3,5-dimethylisoxazol-4-yl)-1-(1-(pyridin-2-yl)ethyl)-1H-pyrrolo[2,3-b]pyridin-3-yl)-3,5-dimethoxybenzoic acid] | 3.00 to 5.10
15 | Cc1noc(C)c1-c1cnc2c(CC3CCC3)cn(-c3ccc(C#N)c(C(=O)O)c3)c2c1 [P-0104, 2-cyano-5-(3-(cyclobutylmethyl)-6-(3,5-dimethylisoxazol-4-yl)-1H-pyrrolo[3,2-b]pyridin-1-yl)benzoic acid] | 3.00 to 5.10
16 | Cc1noc(C)c1-c1cnc2c(CC3CCC3)cn(-c3ccc(C(=O)O)c(C#N)c3)c2c1 [P-0105, 2-cyano-4-(3-(cyclobutylmethyl)-6-(3,5-dimethylisoxazol-4-yl)-1H-pyrrolo[3,2-b]pyridin-1-yl)benzoic acid] | 3.00 to 5.10
17 | Cc1noc(C)c1-c1cnc2c(c1)c(-c1cncc(C(=O)O)n1)cn2[C@@H](C)c1ccccn1 [P-0106, (S)-6-(5-(3,5-dimethylisoxazol-4-yl)-1-(1-(pyridin-2-yl)ethyl)-1H-pyrrolo[2,3-b]pyridin-3-yl)pyrazine-2-carboxylic acid] | 3.00 to 5.10
18 | Cc1noc(C)c1-c1cnc2c(c1)c(-c1nccc(C(=O)O)n1)cn2[C@@H](C)c1ccccn1 [P-0107, (S)-2-(5-(3,5-dimethylisoxazol-4-yl)-1-(1-(pyridin-2-yl)ethyl)-1H-pyrrolo[2,3-b]pyridin-3-yl)pyrimidine-4-carboxylic acid] | 3.00 to 5.10
19 | CCOc1cc(C(=O)O)cc(F)c1-n1cc(CC2CCC2)c2ncc(-c3c(C)noc3C)cc21 [P-0108, 4-(3-(cyclobutylmethyl)-6-(3,5-dimethylisoxazol-4-yl)-1H-pyrrolo[3,2-b]pyridin-1-yl)-3-ethoxy-5-fluorobenzoic acid] | 5.10 to 6.00
20 | CCOc1cc(C(=O)O)cc(OCC)c1-n1cc(CC2CCC2)c2ncc(-c3c(C)noc3C)cc21 [P-0109, 4-(3-(cyclobutylmethyl)-6-(3,5-dimethylisoxazol-4-yl)-1H-pyrrolo[3,2-b]pyridin-1-yl)-3,5-diethoxybenzoic acid] | 5.10 to 6.00
21 | Cc1noc(C)c1-c1cnc2c(CC3CCC3)cn(-c3ccc(C(=O)O)c4ccoc34)c2c1 [P-0110, 7-(3-(cyclobutylmethyl)-6-(3,5-dimethylisoxazol-4-yl)-1H-pyrrolo[3,2-b]pyridin-1-yl)benzofuran-4-carboxylic acid] | 5.10 to 6.00
22 | Cc1noc(C)c1-c1cnc2c(CC3CCC3)cn(-c3c(OC(C)C)cc(C(=O)O)cc3OC(C)C)c2c1 [P-0111, 4-(3-(cyclobutylmethyl)-6-(3,5-dimethylisoxazol-4-yl)-1H-pyrrolo[3,2-b]pyridin-1-yl)-3,5-diisopropoxybenzoic acid] | 3.00 to 5.10
23 | Cc1noc(C)c1-c1cnc2c(c1)c(-c1ccc(C(=O)O)cc1OC(C)C)cn2[C@@H](C)c1ccccn1 [P-0112, (S)-4-(5-(3,5-dimethylisoxazol-4-yl)-1-(1-(pyridin-2-yl)ethyl)-1H-pyrrolo[2,3-b]pyridin-3-yl)-3-isopropoxybenzoic acid] | 3.00 to 5.10
24 | CCCOc1cc(C(=O)O)ccc1-c1cn([C@@H](C)c2ccccn2)c2ncc(-c3c(C)noc3C)cc12 [P-0113, (S)-4-(5-(3,5-dimethylisoxazol-4-yl)-1-(1-(pyridin-2-yl)ethyl)-1H-pyrrolo[2,3-b]pyridin-3-yl)-3-propoxybenzoic acid] | 3.00 to 5.10
25 | CCOc1cc(C(=O)O)ccc1-c1cn([C@@H](C)c2ccccn2)c2ncc(-c3c(C)noc3C)cc12 [P-0114, (S)-4-(5-(3,5-dimethylisoxazol-4-yl)-1-(1-(pyridin-2-yl)ethyl)-1H-pyrrolo[2,3-b]pyridin-3-yl)-3-ethoxybenzoic acid] | 3.00 to 5.10

From patent US11446287B2, “Compounds and methods for EP300 or CBP modulation and indications therefor” (Opna Immuno-Oncology SA, priority 2019, dated 2022)
